Where two headings read alike, the source gives them in different places.
System: hypertriglyceridemic patients with cardiovascular disease or at high risk for cardiovascular disease
Settings: human, in vivo
Protocol: The following clinical events that were positively adjudicated by the Clinical Endpoint Committee were analyzed as tertiary endpoints for the ITT intent-to-treat (ITT) population: • Composition of total mortality, or congestive heart failure (CHF); • Composite of CV death, or new CHF; • Sudden cardiac death; • Peripheral artery disease (PAD); and • Atrial fibrillation, or atrial flutter.
Definition of Cardiac Arrhythmia Requiring Hospitalization: An arrhythmia that either results in hospitalization (≥24 hours) during or within 24 hours of the termination of the last episode for treatment or requires continued hospitalization for treatment, including any one of the following: • Atrial arrhythmia—atrial fibrillation, atrial flutter, supraventricular tachycardia that requires cardio-version, drug therapy, or is sustained for greater than 1 minute; • Ventricular arrhythmia—Ventricular tachycardia or ventricular fibrillation requiring cardio-version and/or intravenous antiarrhythmics; and/or • Bradyarrhythmia—High-level AV block (defined as third-degree AV block or second-degree AV block), junctional or ventricular escape rhythm, or severe sinus bradycardia (typically with heart rate <30 bpm). The bradycardia must require temporary or permanent pacing.
The objective of the following study was to determine how icosapent ethyl affected the incidence of atrial fibrillation and/or flutter in patients from the REDUCE-IT trial, as described in Example 1.
Although not pre-specified as TEAEs of special interest, atrial fibrillation and atrial flutter were also explored post hoc as potential safety signals as discussed above in Example 7. A summary of TEAEs and SAEs of atrial fibrillation/flutter is presented in Table 83, along with positively adjudicated atrial fibrillation/flutter requiring hospitalization of ≥24 hours as a comprehensive compilation of all documented post-randomization occurrences of these atrial arrhythmias. Occurrences of atrial fibrillation or flutter not meeting endpoint criteria (i.e., not positively adjudicated as endpoints) were counted as TEAEs or SAEs, per seriousness criteria.

CC/C=C\C/C=C\C/C=C\C/C=C\C/C=C\CCCC(=O)OCC [AMR101, eicosapentaenoic acid ethyl ester]
Adjudicated as Bradycardia/Heart Block (without Hosp. ≥24 hrs), patients (%): (0.0) % | Adjudicated as VTA/F (without Hosp. ≥24 hrs), patients (%): (0.0) % | Atrial fibrillation TEAE, Event Rate: 5.3% | Atrial fibrillation TEAE, Number of Subjects: 215 | Atrial fibrillation and/or flutter adverse events, SAEs: 0.5% | Atrial fibrillation and/or flutter adverse events, TEAEs: 5.8% | Atrial fibrillation or atrial flutter requiring hospitalization of ≥24 hours, patients with event: 3.1% | Atrial fibrillation/flutter AEs, %: (7.7) % | Atrial fibrillation/flutter AEs, (%): 5.8% | Atrial fibrillation/flutter SAEs (not positively adjudicated as endpoints), patients: 0.6% | Atrial fibrillation/flutter TEAEs (not positively adjudicated as endpoints), patients: 7.7% | Positively Adjudicated Atrial Fibrillation/Flutter (requiring hospitalization): 127 (3.1%) n (%) | Positively adjudicated Afib/Aflutter requiring ≥24 hours hospitalization, (%): 3.1% | Positively adjudicated atrial fibrillation/flutter requiring ≥24 hours hospitalization, %: (3.1) % | Serious Afib/Aflutter AEs, (%): 0.5% | Serious atrial fibrillation/flutter AEs, %: (0.6) % | Subjects with at least one Atrial Fibrillation/Atrial Flutter event: 321 | Treatment-emergent atrial fibrillation (Serious), Event Rate: 0.5% | Treatment-emergent atrial fibrillation (Serious), Number of Subjects: 21 | Treatment-emergent atrial fibrillation, Event Rate: 5.3% | Treatment-emergent atrial fibrillation, Number of Subjects: 215 | Treatment-emergent atrial flutter (Serious), Event Rate: 0.0% | Treatment-emergent atrial flutter (Serious), Number of Subjects: 1 | Treatment-emergent atrial flutter, Event Rate: 0.8% | Treatment-emergent atrial flutter, Number of Subjects: 32 | First onset of atrial fibrillation and/or flutter, Icosapent Ethyl-Placebo Risk Diff., % (95% CI) (0.5 years): −0.00% | First onset of atrial fibrillation and/or flutter, Icosapent Ethyl-Placebo Risk Diff., % (95% CI) (1 year): 0.20% | First onset of atrial fibrillation and/or flutter, Icosapent Ethyl-Placebo Risk Diff., % (95% CI) (1.5 years): 0.51% | First onset of atrial fibrillation and/or flutter, Icosapent Ethyl-Placebo Risk Diff., % (95% CI) (2 years): 0.59% | First onset of atrial fibrillation and/or flutter, Icosapent Ethyl-Placebo Risk Diff., % (95% CI) (2.5 years): 0.78% | First onset of atrial fibrillation and/or flutter, Icosapent Ethyl-Placebo Risk Diff., % (95% CI) (3 years): 0.83% | First onset of atrial fibrillation and/or flutter, Icosapent Ethyl-Placebo Risk Diff., % (95% CI) (3.5 years): 1.17% | First onset of atrial fibrillation and/or flutter, Icosapent Ethyl-Placebo Risk Diff., % (95% CI) (4 years): 1.23% | First onset of atrial fibrillation and/or flutter, Icosapent Ethyl-Placebo Risk Diff., % (95% CI) (4.5 years): 1.00% | First onset of atrial fibrillation and/or flutter, Icosapent Ethyl-Placebo Risk Diff., % (95% CI) (5 years): 1.08% | First onset of atrial fibrillation and/or flutter, Icosapent Ethyl-Placebo Risk Diff., % (95% CI) (5.5 years): 1.00% | Positively adjudicated atrial fibrillation and/or flutter, incidence (6 months): 0.3% | First onset of atrial fibrillation and/or flutter, Icosapent Ethyl-Placebo Risk Diff., % (95% CI) (6 years): 2.07%

Source: patent US12427134B2, “Methods of reducing the risk of cardiovascular events in a subject with atrial fibrillation and/or atrial flutter” (priority 2019, dated 2025)
